Laboratory results taken from publication PMC9897792, “Discovery of novel 2-(4-(benzyloxy)-5-(hydroxyl) phenyl) benzothiazole derivatives as multifunctional MAO-B inhibitors for the treatment of Parkinson’s disease” (Journal of Enzyme Inhibition and Medicinal Chemistry, 2023).
Several values for one entry are separate records, joined by “and”; a condition that tells them apart may be missing. Equal values may be shown once.

Experiments:
[1] = biological target: T1, MAO-A (Homo sapiens, UniProt P21397); assay: MAO-A inhibition, kynuramine method; type: biochemical; details: at the concentration of 10.0 μM; n.a. = no active, percent inhibition <5.0%; read-out: %Inhibition MAO-A
T1 sequence (P21397 1-527): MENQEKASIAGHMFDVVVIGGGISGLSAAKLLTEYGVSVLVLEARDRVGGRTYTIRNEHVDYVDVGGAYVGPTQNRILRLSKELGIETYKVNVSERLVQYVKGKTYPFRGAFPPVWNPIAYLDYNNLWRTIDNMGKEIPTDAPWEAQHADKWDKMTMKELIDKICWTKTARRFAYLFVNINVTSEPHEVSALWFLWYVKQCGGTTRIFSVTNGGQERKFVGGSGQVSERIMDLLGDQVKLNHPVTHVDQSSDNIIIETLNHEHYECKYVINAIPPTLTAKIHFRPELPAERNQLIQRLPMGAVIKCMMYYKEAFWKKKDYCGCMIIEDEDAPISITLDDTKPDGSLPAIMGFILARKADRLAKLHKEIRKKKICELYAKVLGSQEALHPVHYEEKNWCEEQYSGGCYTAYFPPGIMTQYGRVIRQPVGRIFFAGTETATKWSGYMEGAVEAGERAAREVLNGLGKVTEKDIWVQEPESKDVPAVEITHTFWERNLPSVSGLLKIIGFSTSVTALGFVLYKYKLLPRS

[2] = Oxygen radical absorbance capacity assay with fluorescein (ORAC-FL); details: Trolox as standard
Procedure: Oxygen radical absorbance capacity assay which used fluorescein (ORAC-FL) was performed to measure the antioxidant activities of 2-(4-(benzyloxy)-5-(hydroxyl) phenyl) benzothiazole derivatives. […] It reflected that introduction of alkyl substituents on benzyloxy ring was more beneficial for the improvement of in vitro antioxidant activity. However, the position and number of substituents seem to have little influence on the antioxidative activities.
Test compounds solution (20 µL, 10 µM) and fluorescein solution (120 µL, 250 nM) were added to a black 96-wells plate in order. The mixture was incubated for 15 min at 37 °C. Then, AAPH solution (60 µL, 40 mM) was added through an automatic sampler. The fluorescence was recorded with excitation and emission wavelengths at 485 and 535 nm on the multifunctional enzyme marker (Thermo Scientific), and the area under the curve (AUC) was calculated automatically. Trolox was used as a reference, and the antioxidant activities of the compounds were expressed as Trolox equivalent. The test compound solution was replaced with PBS (20 µL) in blank well. The antioxidant activities of the test compounds were calculated by the formula: [(AUCsample − AUCblank)/(AUCtrolox − AUCblank)] × [(Trolox concentration/test sample concentration)].

[3] = biological target: T2, MAO-B (Homo sapiens, UniProt P27338); assay: Kinetic study of MAO-B inhibition (Lineweaver-Burk plots); type: biochemical
T2 sequence (P27338 1-520): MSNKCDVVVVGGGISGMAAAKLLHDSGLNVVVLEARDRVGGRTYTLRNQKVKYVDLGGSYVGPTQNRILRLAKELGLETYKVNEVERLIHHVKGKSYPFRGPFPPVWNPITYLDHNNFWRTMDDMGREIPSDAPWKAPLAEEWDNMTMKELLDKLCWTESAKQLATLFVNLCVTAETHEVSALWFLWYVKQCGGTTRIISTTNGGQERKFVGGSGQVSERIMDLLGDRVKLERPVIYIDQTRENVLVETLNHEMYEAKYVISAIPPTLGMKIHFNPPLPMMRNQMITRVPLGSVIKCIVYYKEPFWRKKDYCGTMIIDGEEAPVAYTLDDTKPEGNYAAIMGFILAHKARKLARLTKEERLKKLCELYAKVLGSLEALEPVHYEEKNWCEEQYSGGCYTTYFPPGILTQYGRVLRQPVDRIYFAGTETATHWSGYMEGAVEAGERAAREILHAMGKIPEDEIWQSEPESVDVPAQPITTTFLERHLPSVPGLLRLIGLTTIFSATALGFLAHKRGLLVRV
Procedure: Kinetic study[35]^,[36] was conducted to figure out the MAO-B inhibitory mechanism of 2-(4-(benzyloxy)-5-(hydroxyl) phenyl) benzothiazole derivatives, with 3h as the test compound. […] The graphical of the reciprocal Lineweaver-Burk plots was depicted in Figure 2(A).
The kinetic study of 3h was conducted by the method which is similar with the inhibition experiment of MAOs. Different concentrations of 3h (0.124, 0.062, and 0.031 µM) and kynuramine (15, 30, 60, and 90 µM) solutions were selected. The control experiment was performed without 3h. The method of data analysis has been described previously.

[4] = biological target: T2, MAO-B; assay: Reversibility study of MAO-B inhibition by dialysis method; type: biochemical
[5] = Metal-chelating study by UV spectra; type: physicochemical; details: 75.0 μM in methanol; shifted from 335.5 nm
Procedure: Particularly, after the addition of FeSO4, maximum increase in absorption was detected. Besides, after the addition of CuCl2, maximum absorption peak shifted from 335.5 to 382.0 nm.
UV spectrum method was conducted to clarify the metal chelating ability of 2-(4-(benzyloxy)-5-(hydroxyl) phenyl) benzothiazole derivatives. Test compound solution (1.0 ml, 75 µM in methanol) and metal ion solution (1.0 ml, 75 µM in methanol) were added to a vial. The vial was placed at room temperature for 2 h. Then, the mixture was removed from the vial to a quartz cell. After transfer, the absorbance of the mixture at 200–800 nm was measured by using UV spectrophotometer (Shimadzu UV-1900i).

[6] = Parallel artificial membrane permeation assay for blood-brain barrier (PAMPA-BBB); type: in vitro ADME
[7] = test system: NO release in LPS-activated BV-2 microglia cells; assay: LPS-induced NO release in BV-2 cells (Griess method); type: cell-based; details: Mus musculus, LPS 1.0 µg/mL, read-out: inhibitory rate of LPS-induced NO release
Procedure: Then, Griess method was performed to measure the inhibitory effect of 3h on LPS-induced NO release in BV-2 cells. […] It reflected that LPS could induce the activation of BV-2 cells and induce neuroinflammation.
ELISA and Griess reaction methods were performed to detect the inhibitory effect of 3h on the release of TNF-α and NO in LPS-stimulated BV-2 cells[46]^,[47]. BV-2 cells in the logarithmic phase were seeded into 96-well cell culture plate, and these cells were incubated at 37 °C for 24 h at the atmosphere of 5% CO2. After incubation, the culture solution was replaced by fresh one (90 µL without serum), and test compound solution (10 µL) was added. After addition, the plate was incubated for 30 min, then LPS (10 µL, 1.0 µg/ml in PBS) was added to each well, and the mixture would be incubated for another 24 h at 37 °C. After the final incubation, the supernatants were taken out to measure the level of TNF-α and NO according to the procedures depicted on the kits (kits were purchased from Nanjing Jiancheng Bioengineering Institute).

inhibition at 10 µM [1]: 39.7 ± 0.54% | MAO-B inhibition pattern ([3]; Lineweaver-Burk plots): competitive | Ki ([3]; from slopes of Lineweaver-Burk plots vs. inhibitor concentration, kynuramine substrate, read-out: competitive inhibition constant (Ki)): 102 nM | MAO-B catalytic activity, undialysis group ([4]; test compound 4 × IC50, 4 °C for 24 h without dialysis): 27.6% | MAO-B catalytic activity, dialysis group ([4]; test compound 4 × IC50, dialysis 24 h): 80.9% | maximum absorption peak after the addition of CuCl2 [5]: 382.0 nm | Pe ([6]; PBS/EtOH (70:30), mean ± SD of three independent experiments): 4.03 ×10⁻⁶ cm/s | Papp at 18 h, 100 µg/mL ([6]; PBS/EtOH (70:30), mean ± SD of three independent experiments, read-out: Pe): 4.03 ± 0.14 ×10⁻⁶ cm/s
SMILES: Oc1cc(OCc2ccc(F)cc2)ccc1-c1nc2ccccc2s1 [3h, 2-(Benzo[d]thiazol-2-yl)-5-((4-fluorobenzyl)oxy)phenol]
ORAC [2]: 2.27 Trolox equivalents and 2.27 ± 0.08 Trolox equivalents | MAO-B inhibitory mode ([4]; classified by MAO-B catalytic activity in dialysis group): reversible (reversible inhibition: MAO-B catalytic activity ≥ 80%) | Prediction of penetration into CNS [6]: CNS+ (High BBB permeation predicted (CNS +) Pe> 3.44) | inhibition at 0.5 µM ([7]; 0.5 µM): 15.8% | inhibition at […] ([7]; 2.5 µM): 35.8% | inhibition at 10 µM ([7]; 10.0 µM): 63.7%
